In patent publication EP4603105A1, “PHARMACEUTICAL COMPOSITION CONTAINING CYCLIC COMPOUND HAVING SELECTIVE KRAS INHIBITORY EFFECT AGAINST HRAS AND NRAS” (CHUGAI SEIYAKU KABUSHIKI KAISHA, priority 2022, dated 2024):
Where two headings read alike, the source gives them in different places.

Experiments:
[1] = biological target: GDP-bound KRAS wild-type protein (Homo sapiens, UniProt P01116); test: Binding to KRAS by surface plasmon resonance (SPR), dissociation constant KD
Procedure, shortened: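 SPR, 30°C: Avi-biotin RAS·GDP captured via Biotin CAPture (~100–300 RU); running buffer HBS pH 7.4, 1 mM DTT, 10 mM MgCl2, 0.01% Tween 20, 10 µM GDP, 4% DMSO. Single-cycle kinetics, 100 µL/min, 75 s injections; 1:1 model → KD.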

[2] = biological target: GDP-bound NRAS wild-type protein (Homo sapiens, UniProt P01111); test: Binding to NRAS by surface plasmon resonance (SPR), KD and KD ratio to KRAS
GDP-bound NRAS wild-type protein, sequence (P01111 whole entry): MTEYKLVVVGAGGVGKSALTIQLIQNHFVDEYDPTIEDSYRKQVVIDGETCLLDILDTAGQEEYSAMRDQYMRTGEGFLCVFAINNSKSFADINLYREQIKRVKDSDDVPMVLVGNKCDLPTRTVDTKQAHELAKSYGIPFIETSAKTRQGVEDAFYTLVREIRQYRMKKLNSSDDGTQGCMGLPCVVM
Procedure, shortened: (§1)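 Measured at 30°C: SPR with GDP-loaded, E. coli-expressed biotin-Avi RAS captured (~100–300 RU), ascending 75 s compound injections, HBS pH 7.4 with GDP, MgCl2, 4% DMSO. KD from 1:1 fit.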

HRAS wild-type protein = HRAS wild-type protein (Homo sapiens, UniProt P01112); test: Binding to HRAS by surface plasmon resonance (SPR), KD and KD ratio to KRAS
HRAS wild-type protein, sequence (P01112 whole entry): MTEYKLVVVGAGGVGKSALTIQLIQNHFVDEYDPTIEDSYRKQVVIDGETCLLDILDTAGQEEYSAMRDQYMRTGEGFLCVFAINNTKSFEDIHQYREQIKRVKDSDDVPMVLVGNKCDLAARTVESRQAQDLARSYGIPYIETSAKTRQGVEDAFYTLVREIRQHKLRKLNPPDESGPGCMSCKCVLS
Procedure, shortened: as §1

[3] = system: human lung cancer strain NCI-H441; test: NCI-H441 cell proliferation inhibitory activity (CellTiter-Glo, 4 days); type: cell-based; conditions: read-out: NCl-H441 IC50
Procedure, shortened: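 Signal came from […] measured per well once the reagent was added. Beforehand, cells were cultured at 37°C and 5% carbon dioxide on a compound series serially diluted in dimethyl sulfoxide.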

[4] = Single Cycle Kinetics, 1:1 binding model
[5] = ratio of KD with respect to GDP-bound NRAS wild-type protein to KD with respect to KRAS
[6] = ratio of KD with respect to HRAS wild-type protein to KD with respect to KRAS
[7] = 50% proliferation inhibitory concentration, four days
[8] = ratio of KD for GDP-bound NRAS wild-type protein to KD for KRAS
[9] = ratio of KD for HRAS wild-type protein to KD for KRAS

GDP-bound KRAS wild-type protein, sequence (P01116 1-188 isoform P01116-2): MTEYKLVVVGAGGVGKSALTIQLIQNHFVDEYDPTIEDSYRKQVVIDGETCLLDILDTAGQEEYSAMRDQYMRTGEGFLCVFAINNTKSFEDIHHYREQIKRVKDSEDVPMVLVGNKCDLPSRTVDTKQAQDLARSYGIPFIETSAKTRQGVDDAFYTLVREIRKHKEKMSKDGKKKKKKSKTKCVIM

Row | SMILES | Kd [1, 4] [nM] | IC50 [3, 7] [nM] | Kd ([1]; Single Cycle Kinetics) [nM] | IC50 ([3]; NCI-H441 cells, 4 days) [nM] | Kd ([1]; 1:1 binding model) [nM] | NRAS /KRAS [2, 5] | HRAS /KRAS (HRAS wild-type protein; [6]) | NRAS /KRAS [2, 8] | HRAS /KRAS (HRAS wild-type protein; [9])
1 | CCO[C@@H]1C[C@H]2C(=O)NC3(CCC3)C(=O)N(C)[C@@H](C3CCCC3)C(=O)N(C)[C@H](C(=O)N3CCOCC3)CC(=O)N(C)[C@@H](CC)C(=O)N[C@@H]([C@@H](C)CC)C(=O)N(C)CC(=O)N(C)[C@H]3C[C@@H](C)[C@@H](C)CN(C3=O)[C@@H](Cc3ccc(C(F)(F)F)cc3)C(=O)N(C)CC(=O)N[C@@H](CCc3cc(F)c(C(F)(F)F)c(F)c3)C(=O)N2C1 [PP1354] | 0.056 | 3.6 |  |  |  | A (a compound having 10 or more and less than 20 is denoted as A) | B (a compound having 3 or more and less than 10 is denoted as B) |  | 
2 | CCC[C@H]1C(=O)N[C@@H]([C@@H](C)CC)C(=O)N(C)CC(=O)N(C)[C@H]2C/C=C\CCN(C2=O)[C@@H](Cc2ccc(C(F)(F)F)cc2)C(=O)N(C)CC(=O)N[C@@H](CCc2ccc(C(F)(F)F)c(OC)c2)C(=O)N2C[C@H](OCC)C[C@H]2C(=O)OC2(CCC2)C(=O)N(C)[C@@H](C2CCCC2)C(=O)N(C)[C@H](C(=O)N(C)C)CC(=O)N1C [PP3370] |  |  | 0.14 | 6.8 |  |  |  | A (a compound having 10 or more and less than 20 is denoted as A) | B (a compound having 3 or more and less than 10 is denoted as B)
3 | CCC[C@H]1C(=O)N[C@@H]([C@@H](C)CC)C(=O)N(C)CC(=O)N(C)[C@H]2C/C=C\CCN(C2=O)[C@@H](CC2CCCCC2)C(=O)N(C)CC(=O)N[C@@H](CCc2ccc(C(F)(F)F)c(OC)c2)C(=O)N2C[C@@H](C)C[C@H]2C(=O)N(C)C2(CCC2)C(=O)N(C)[C@@H](C2CCCC2)C(=O)N(C)[C@H](C(=O)N(C)C)CC(=O)N1C [PP2370] |  |  |  | 25.7 | 0.54 |  |  | B (a compound having 3 or more and less than 10 is denoted as B) | B (a compound having 3 or more and less than 10 is denoted as B)
4 | CCO[C@@H]1C[C@H]2C(=O)NC3(CCCC3)C(=O)N(C)[C@@H](C3CCCC3)C(=O)N(C)[C@H](C(=O)N(C)C)CC(=O)N(C)[C@@H](CC)C(=O)N[C@@H]([C@@H](C)CC)C(=O)N(C)CC(=O)N(C)[C@H]3C[C@@H](C)[C@@H](C)CN(C3=O)[C@@H](Cc3ccc(C(F)(F)F)cc3)C(=O)N(C)CC(=O)N[C@@H](CCc3ccc(C(F)(F)F)c(Cl)c3)C(=O)N2C1 [PP1358] | 0.03 | 4.1 |  |  |  | A (a compound having 10 or more and less than 20 is denoted as A) | B (a compound having 3 or more and less than 10 is denoted as B) |  | 
5 | CCC[C@H]1C(=O)N[C@@H]([C@@H](C)CC)C(=O)N2CCC[C@H]2C(=O)N(C)[C@H]2C/C=C\CCN(C2=O)[C@@H](Cc2ccc(C)cc2)C(=O)N(C)CC(=O)N[C@@H](CCc2cc(F)c(C(F)(F)F)c(F)c2)C(=O)N2CC[C@H](OC)[C@H]2C(=O)N(C)C2(CCC2)C(=O)N(C)[C@@H](C2CCCC2)C(=O)N(C)[C@H](C(=O)N(C)C)CC(=O)N1C [PP3286] |  |  | 0.15 | 11.4 |  |  |  | A (a compound having 10 or more and less than 20 is denoted as A) | A (a compound having 10 or more and less than 20 is denoted as A)
6 | CCO[C@@H]1C[C@H]2C(=O)OC3(CCC3)C(=O)N(C)[C@@H](C3CCCC3)C(=O)N(C)[C@H](C(=O)N(C)C)CC(=O)N(C)[C@@H](CC(C)C)C(=O)N[C@@H]([C@@H](C)CC)C(=O)N3CCC[C@H]3C(=O)N(C)[C@H]3C/C=C\CCN(C3=O)[C@@H](Cc3ccc(C(F)(F)F)cc3)C(=O)N(C)CC(=O)N[C@@H](CCc3ccc(C(F)(F)F)c(OC)c3)C(=O)N2C1 [PP3362] |  |  | 0.84 | 34.3 |  |  |  | A (a compound having 10 or more and less than 20 is denoted as A) | A (a compound having 10 or more and less than 20 is denoted as A)
7 | CCCO[C@@H]1C[C@H]2C(=O)NC3(CC(C)(C)C3)C(=O)N(C)[C@@H](C3CCCC3)C(=O)N(C)[C@H](C(=O)N(C)CC)CC(=O)N[C@@H](COCC)C(=O)N[C@@H]([C@@H](C)CC)C(=O)N3CCC[C@H]3C(=O)N(C)[C@H]3C/C=C\CCN(C3=O)[C@@H](Cc3ccc(C)cc3)C(=O)N(C)CC(=O)N[C@@H](CCc3cc(F)c(C(F)(F)F)c(F)c3)C(=O)N2C1 [PP3423] |  |  | 1.8 | 81.2 |  |  |  | A (a compound having 10 or more and less than 20 is denoted as A) | A (a compound having 10 or more and less than 20 is denoted as A)
8 | CCO[C@@H]1C[C@H]2C(=O)NC(C)(C)C(=O)N(C)[C@@H](C3CCCC3)C(=O)N(C)[C@H](C(=O)N(C)C)CC(=O)N(C)[C@@H](CC(C)C)C(=O)N[C@@H]([C@@H](C)CC)C(=O)N(C)CC(=O)N(C)[C@H]3C/C(F)=C\CCN(C3=O)[C@@H](Cc3ccc(C)cc3)C(=O)N(C)CC(=O)N[C@@H](CCc3cc(F)c(C(F)(F)F)c(F)c3)C(=O)N2C1 [PP3523] |  |  | 0.59 | 23.9 |  |  |  | B (a compound having 3 or more and less than 10 is denoted as B) | B (a compound having 3 or more and less than 10 is denoted as B)

More lines, main results first:

Row | Kd [1, 4] [nM] | IC50 [3, 7] [nM] | Kd ([1]; Single Cycle Kinetics) [nM] | IC50 ([3]; NCI-H441 cells, 4 days) [nM] | Kd ([1]; 1:1 binding model) [nM] | SMILES | NRAS /KRAS [2, 5] | HRAS /KRAS (HRAS wild-type protein; [6]) | NRAS /KRAS [2, 8] | HRAS /KRAS (HRAS wild-type protein; [9])
9 |  |  |  | 11.7 | 0.14 | CCOC[C@H]1C(=O)N[C@@H]([C@@H](C)CC)C(=O)N(C)CC(=O)N(C)[C@H]2C/C=C\CCN(C2=O)[C@@H](Cc2ccc(C)cc2)C(=O)N(C)CC(=O)N[C@@H](CCc2ccc(C(F)(F)F)c(OC)c2)C(=O)N2C[C@H](OCC)C[C@H]2C(=O)NC2(CC(C)(C)C2)C(=O)N(C)[C@@H](C2CCCC2)C(=O)N(C)[C@H](C(=O)N(C)CC)CC(=O)N1C [PP2445] |  |  | A (a compound having 10 or more and less than 20 is denoted as A) | B (a compound having 3 or more and less than 10 is denoted as B)
10 |  |  | 0.46 | 9.8 |  | C#CC[C@H]1C(=O)N[C@@H]([C@@H](C)CC)C(=O)N(C)CC(=O)N(C)[C@H]2C/C=C\CCN(C2=O)[C@@H](Cc2ccc(C)cc2)C(=O)N(C)CC(=O)N[C@@H](CCc2ccc(C(F)(F)F)c(OC)c2)C(=O)N2C[C@H](OCC)C[C@H]2C(=O)OC2(CCC2)C(=O)N(C)[C@@H](C2CCCC2)C(=O)N(C)[C@H](C(=O)N(C)C)CC(=O)N1C [PP3391] |  |  | B (a compound having 3 or more and less than 10 is denoted as B) | B (a compound having 3 or more and less than 10 is denoted as B)
11 |  |  |  | 66.4 | 0.8 | CCC[C@H]1C(=O)N[C@@H]([C@@H](C)CC)C(=O)N(C2CC2)CC(=O)N(C)[C@H]2C/C=C\CCN(C2=O)[C@@H](Cc2ccc(C)cc2)C(=O)N(C)CC(=O)N[C@@H](CCc2ccc(Cl)c(Cl)c2)C(=O)N2C[C@H](OC3CCC3)C[C@H]2C(=O)NC2(CC(C)(C)C2)C(=O)N(C)[C@@H](C2CCCC2)C(=O)N(C)[C@H](C(=O)N(C)C)CC(=O)N1C [PP2616] |  |  | A (a compound having 10 or more and less than 20 is denoted as A) | A (a compound having 10 or more and less than 20 is denoted as A)
12 |  |  |  | 75 | 0.81 | CCC[C@H]1C(=O)N[C@@H]([C@@H](C)CC)C(=O)N(C)CC(=O)N(C)[C@H]2C/C=C\CCN(C2=O)[C@@H](Cc2ccc(C)cc2)C(=O)N(C)CC(=O)N[C@@H](CCc2ccc(Cl)c(Cl)c2)C(=O)N2C[C@H](OC3CCC3)C[C@H]2C(=O)NC2(CC(C)(C)C2)C(=O)N(C)[C@@H](C(CC)CC)C(=O)N(C)[C@H](C(=O)N(C)C)CC(=O)N1C [PP2644] |  |  | AA (a compound having 20 or more is denoted as AA) | A (a compound having 10 or more and less than 20 is denoted as A)
13 |  |  | 0.2 | 16.4 |  | CCCC[C@@H]1NC(=O)C[C@@H](C(=O)N(C)C)N(C)C(=O)[C@H](C2CCCC2)N(C)C(=O)C2(CC(C)(C)C2)NC(=O)[C@@H]2C[C@@H](OCC)CN2C(=O)[C@H](CCc2cc(F)c(C(F)(F)F)c(F)c2)NC(=O)CN(C)C(=O)[C@H](Cc2ccc(C(F)(F)F)cc2)N2CC/C=C\C[C@@H](C2=O)N(C)C(=O)CN(C)C(=O)[C@H]([C@@H](C)CC)NC1=O [PP3456] |  |  | A (a compound having 10 or more and less than 20 is denoted as A) | A (a compound having 10 or more and less than 20 is denoted as A)
14 |  |  |  | 10.6 | 0.15 | CCCOC[C@H]1C(=O)N[C@@H]([C@@H](C)CC)C(=O)N(C)CC(=O)N(C)[C@H]2C/C=C\CCN(C2=O)[C@@H](Cc2ccc(C)cc2)C(=O)N(C)CC(=O)N[C@@H](CCc2ccc(C(F)(F)F)c(OC)c2)C(=O)N2C[C@@H](C)C[C@H]2C(=O)NC2(CC(C)(C)C2)C(=O)N(C)[C@@H](C2CCCC2)C(=O)N(C)[C@H](C(=O)N(C)CC)CC(=O)N1C [PP2461] |  |  | A (a compound having 10 or more and less than 20 is denoted as A) | A (a compound having 10 or more and less than 20 is denoted as A)
15 |  |  |  | 212 | 4.1 | CCC[C@H]1C(=O)N[C@@H](CC(C)C)C(=O)N2C[C@@H](OC)C[C@H]2C(=O)N(C)[C@H]2C/C=C\CCN(C2=O)[C@@H](Cc2ccc(C)cc2)C(=O)N(C)CC(=O)N[C@@H](CCc2ccc(C(F)(F)F)c(Cl)c2)C(=O)N2C[C@H](OCC)C[C@H]2C(=O)NC2(CC(C)(C)C2)C(=O)N(C)[C@@H](C2CCCC2)C(=O)N(C)[C@H](C(=O)N(C)C)CC(=O)N1C [PP2555] |  |  | A (a compound having 10 or more and less than 20 is denoted as A) | B (a compound having 3 or more and less than 10 is denoted as B)
